Source: patent US20060074103A1, “Cyclic beta-amino acid derivatives as factor Xa inhibitors” (priority 2004, published 2006)

melting point: 301 to 303 °C
SMILES: O=C(N[C@H]1CCCC[C@@H]1C(=O)Nc1ccc(Cl)cn1)c1ccc(-n2ccccc2=O)cc1 [Example 1]
